Reference: PMC6824041, “gem-Difluorobisarylic derivatives: design, synthesis and anti-inflammatory effect” (BMC Chemistry, 2019)

Molecular target: T1, cyclooxygenase-1 (COX-1) (Homo sapiens, UniProt P23219)
T1 construct: gene PTGS1; human recombinant COX-1 stably overexpressed in HEK-293 cells
Assay: PGE2 production from added arachidonic acid in HEK-293 cells overexpressing human COX-1
Assay type: cell-based

T1 sequence (P23219 24-599): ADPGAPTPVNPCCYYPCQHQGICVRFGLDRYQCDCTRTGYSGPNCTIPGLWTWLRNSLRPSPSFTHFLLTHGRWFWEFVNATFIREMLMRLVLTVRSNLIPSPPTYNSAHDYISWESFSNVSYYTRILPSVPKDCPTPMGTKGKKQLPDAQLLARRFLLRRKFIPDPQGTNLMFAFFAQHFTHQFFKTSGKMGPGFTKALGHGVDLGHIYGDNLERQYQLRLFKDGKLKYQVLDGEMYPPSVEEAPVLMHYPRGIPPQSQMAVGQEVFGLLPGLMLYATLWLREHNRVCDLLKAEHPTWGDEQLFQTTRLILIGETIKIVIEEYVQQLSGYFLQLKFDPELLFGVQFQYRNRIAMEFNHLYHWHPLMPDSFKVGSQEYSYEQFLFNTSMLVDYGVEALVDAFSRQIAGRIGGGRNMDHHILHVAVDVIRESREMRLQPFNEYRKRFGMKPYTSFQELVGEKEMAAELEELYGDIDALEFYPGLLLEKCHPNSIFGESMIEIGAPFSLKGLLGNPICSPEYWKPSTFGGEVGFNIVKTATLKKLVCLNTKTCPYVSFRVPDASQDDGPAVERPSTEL

IC50: 5.2 µM
SMILES: Cc1cc(C(=O)O)c(C(F)(F)c2cccc(C(C)C)c2)cc1C [A5, 2-(difluoro(3-isopropylphenyl)methyl)-4,5-dimethylbenzoic acid]
